In patent US4316022A, “Benzo-as-triazine derivatives” (priority 1979, dated 1982):
Where two headings read alike, the source gives them in different places.

Tests used:
in vivo = settings: mouse, po
Procedure: The toxicity of the new compounds according to the invention was determined on mice after oral administration. The chemical names of the reference compounds are as follows: […]

[1] = test system: carrageenin-provoked paw oedema; test: antiphlogistic (oedema-inhibiting) effect, carrageenin paw oedema on rats; assay type: in vivo; settings: for ED30: Rattus norvegicus, read-out: ED30 (antiphlogistic effect); for Therapeutical index (antiphlogistic effect): carrageenin paw oedema
Procedure: The antiphlogistic (oedema-inhibiting) effect was tested on rats. 0.1 ml of a 1% carrageenin solution were injected into the plantar region of one of the hind paws. The volume of the paw was measured just before and 3 hours after the introduction of the oedema-provoking agent by a mercury plethysmometer.

narcosis = narcosis potentiating effect on mice, method of Kaergaard; assay type: in vivo; settings: for ED50: Mus musculus, read-out: ED50 (narcosis potentiating effect)
Procedure: The narcosis potentiating effect was determined on mice by the method of Kaergaard (Arch. Int. Pharmacodyn. 2, 170/1967/).

acetic acid writhing = test: analgesic effect, acetic acid writhing test on mice; assay type: in vivo; settings: for ED50: Mus musculus, read-out: ED50 (analgesic effect); for Therapeutical index (analgesic effect): writhing test
Procedure: The analgesic effect of the new compounds according to the invention was determined on mice by the acetic acid writhing test.

[2] = rats, dosage inhibiting inflammation by 30%, 3 hours after carrageenin
[3] = mice, oral, acetic acid given 1 h after treatment, writhings counted within 5 minutes

SMILES: CC(=O)N1c2ccccc2-n2cnnc2N1C(C)=O [Example 1, 4,5-diacetyl-4,5-dihydro-s-triazolo-[3,4-c]benzo-as-triazine]
- LD50 (in vivo): 1100 mg/kg
- ED30 [1, 2]: 110 mg/kg
- Therapeutical index (antiphlogistic effect) ([1]; rats): 10
- ED50 (narcosis; mice, method of Kaergaard): 75 mg/kg
- Therapeutical index (narcosis potentiating effect) (narcosis; mice, method of Kaergaard): 15

SMILES: CCC(=O)N1c2ccccc2-n2c(SC)nnc2N1C(=O)CC [Example 5, 1-methylthio-4,5-dipropionyl-4,5-dihydro-s-triazolo[3,4-c]benzo-as-triazin]
- LD50 (in vivo): 1000 mg/kg
- ED50 (acetic acid writhing; [3]): 100 mg/kg
- Therapeutical index (analgesic effect) (acetic acid writhing; mice, oral): 10
- ED50 (narcosis; mice, method of Kaergaard): 140 mg/kg
- Therapeutical index (narcosis potentiating effect) (narcosis; mice, method of Kaergaard): 7

SMILES: CCC(=O)N1c2ccccc2-n2cnnc2N1C(=O)CC [Example 3, 4,5-dipropionyl-4,5-dihydro-s-triazolo[3,4-c]benzo-as-triazine]
- LD50 (in vivo): 2000 mg/kg
- ED50 (acetic acid writhing; [3]): 200 mg/kg
- Therapeutical index (analgesic effect) (acetic acid writhing; mice, oral): 10
- ED50 (narcosis; mice, method of Kaergaard): 80 mg/kg
- Therapeutical index (narcosis potentiating effect) (narcosis; mice, method of Kaergaard): 25

SMILES: CCCCC1C(=O)N(c2ccccc2)N(c2ccccc2)C1=O [Phenylbutazone, 4-butyl-1,2-diphenyl-3,5-pyrazolidinedione, reference compound]
- ED30 [1, 2]: 90 mg/kg

SMILES: CC(=O)Nc1ccc(O)cc1 [Paracetamol, N-(hydroxyphenyl)acetamide, reference compound]
- ED50 (acetic acid writhing; po): 180 mg/kg

SMILES: CCCC(C)(COC(N)=O)COC(N)=O [Meprobamate, 2-methyl-2-propyl-1,3-propanediol dicarbamate, reference compound]
- LD50 (in vivo): 1100 mg/kg
- ED50 (narcosis): 260 mg/kg
- Therapeutical index (narcosis potentiating effect) (narcosis; mice, method of Kaergaard): 4.2

SMILES: CCCc1c(O)n2c3nncn3c3ccccc3n2c1=O [Example 11, 1-oxo-3-hydroxy-2-n-propyl-pyrazolo[1,2-a]-s-triazolo-[3,4-c]benzo-as-triazine]
- LD50 (in vivo): 2000 mg/kg

SMILES: CCC(=O)N1Nc2nncn2-c2ccccc21 [Example 4, 5-propionyl-4,5-dihydro-s-triazolo[3,4-c]benzo-as-triazine]
- LD50 (in vivo): 1750 mg/kg
- ED50 (acetic acid writhing; [3]): 175 mg/kg
- Therapeutical index (analgesic effect) (acetic acid writhing; mice, oral): 10
- ED30 [1, 2]: 22 mg/kg
- Therapeutical index (antiphlogistic effect) ([1]; rats): 79.55
- ED50 (narcosis; mice, method of Kaergaard): 140 mg/kg
- Therapeutical index (narcosis potentiating effect) (narcosis; mice, method of Kaergaard): 13

SMILES: CC(=O)Oc1ccccc1C(=O)O [Acetylsalicylic acid, reference compound]
- LD50 (in vivo): 1500 mg/kg
- ED30 ([1]; 3 h): 180 mg/kg
- Therapeutical index (antiphlogistic effect) ([1]; rats): 8.33
